Measured values: article PMC8369502, “High-Throughput Drug Screening System Based on Human Induced Pluripotent Stem Cell-Derived Atrial Myocytes ∼ A Novel Platform to Detect Cardiac Toxicity for Atrial Arrhythmias” (Frontiers in Pharmacology, 2021)
Where “and” joins values, the source holds several entries; their conditions need not be identical. Equal values may be shown once. Entries after “also recorded” stand apart in the source; their conditions may differ. Read-outs that look alike come from different tables or passages of the source.

Experiments:
Type in all cases: cell-based, human
[1] = test system: AM (RA-treated hiPS-CMs, atrial-like); test: High-throughput membrane potential recording (FluoVolt, FDSS/μCell) in AM; details: for PWD30cF / Rising Slope / PWD80cF / Falling Slope / Beat Rate: % change from value before compound addition, 10 min after addition (Bay K 8644: 3 min); for rising slope of membrane potential (in words) / falling slope of membrane potential (in words) / beating rate (in words): concentration range as stated in the source; for cessation of beating (samples): 0.1 μM doses; for arrest of spontaneous beating (samples): at the maximal concentration
Protocol: (§1) Using a high-throughput screening system (FDSS/μCell), we assessed the drug toxicity of several experimental drugs on hiPS-derived atrial myocytes as well as control hiPS-derived cardiomyocytes. Membrane potential was used as one of the parameters during the assessment.
(§2) After purification, hiPS-derived cardiomyocytes were plated in 96-well plates for downstream drug response assessment using FluoVolt™ Membrane Potential Kit. […] The comparison of variance in the response of drug administration in CT and AM was represented by the percentage of changes based on their baseline values respectively.
(§3) FluoVolt™ Membrane Potential Kit (ThermoFisher […], F10488, Massachusetts, United States) was used to measure membrane potentials. The basic procedure was performed in accordance with the manufacturer’s instructions. […] MP were recorded at excitation and emission stages at wavelengths of 470 and 540 nm, respectively. […] Stock solutions of the test compounds were prepared in 100% DMSO, and serially diluted 1/40 into compound plates for testing (0.5% DMSO was the maximum concentration in all wells). The compounds were automatically pipetted from the compound plate, and 12 μL was loaded in the wells already containing the cells with 48 μL of media. Recording data were analyzed using Waveform Analysis of Cardiomyocyte Software (Ver.1.2.1J, Hamamatsu Photonics K.K.). Data values for a well were averaged from waveforms that arose during 30 s. The beat rate (BR; beats per minute), waveform amplitude (AMP), and duration at 30, 50, and 80% of decay (PWD30, PWD 50, and PWD 80, respectively) were used as evaluation parameters. PWDs were corrected using the Fridericia formula. PWD30-80 was calculated as the difference between PWD80 and PWD30. Each parameter was calculated as percentage change (%) from the value before test compound addition.

[2] = test system: CT (control hiPS-CMs without RA, ventricular-like); test: High-throughput membrane potential recording (FluoVolt, FDSS/μCell) in CT; details: for Falling Slope / PWD30cF / PWD80cF / Rising Slope: % change from value before compound addition, 10 min after addition (Bay K 8644: 3 min); for rising slope of membrane potential (in words) / falling slope of membrane potential (in words) / beating rate (in words): concentration range as stated in the source
Protocol: as §1, §2, §3

[3] = test system: hiPS-derived cardiomyocytes; test: Cardiac differentiation of hiPSCs with RA, immunostaining (cTnT, MLC-2a, MLC-2v)
Protocol: Undifferentiated hiPSCs were maintained in AK02 medium for 2–3 days until 80% confluency was obtained. To obtain highly purified cardiomyocytes, metabolic selection was performed during post-differentiation, from day 15–26. Cardiomyocyte proportion was quantified by immunostaining with cardiac troponin-T (cTnT).
To further evaluate the gene expression of cardiac subtypes in the control hiPS-CMs (CT) and the RA-treated hiPS-CMs (AM), the cells were co-stained with myosin light chain 2a (MLC-2a: atrial isoform) and myosin light chain 2v (MLC-2v: ventricular isoform) (Supplementary Figure 1). […] In AM (MLC-2a 83.4 ± 0.63%), most cTnT-positive cells were co-positive for MLC-2a, however, very few cTnT-positive cells were found co-positive for MLC-2v (MLC-2v 14.0 ± 2.82%) (Figures 1B, C).
The hiPSCs were enzymatically dispersed and maintained until 80% confluence with StemFit® AK02N containing 10 µM Y-27632 (Wako, 036-24023). The next day, the culture medium was changed to StemFit® AK02N without Y-27632, which was maintained until the next passage. hiPSCs were seeded on a dish coated with Geltrex LDEV-Free Reduced Growth Factor (ThermoFisher […]) at 1% concentration in PBS. When the seeded cells reached 80% confluency (day-1), the culture medium was changed to StemFit® AK02N containing Matrigel® (Growth Factor Reduced, Corning, 354,230) at 1% concentration for 24 h. On day0, the culture medium was changed to Medium A (PSC Cardiomyocyte Differentiation Kit, ThermoFisher […]) containing Matrigel for 48 h. On day2, the culture medium was changed to Medium B (PSC Cardiomyocyte Differentiation Kit, ThermoFisher […]) for 48 h. On day4, the culture medium was changed to cardiomyocyte maintenance medium (PSC Cardiomyocyte Differentiation Kit, ThermoFisher […]) supplemented with or without 0.7 μM RA (Sigma Aldrich, R2625) for 72 h. On day 7, the culture medium was changed to cardiomyocyte maintenance medium, and change the medium every 2 days. The cells typically started spontaneous beating around 10 days of initiation of the differentiation protocol. Purification of cardiomyocytes was performed by using a non-glucose medium supplemented with 4 mM lactic acid for 4days/time, performed 2 times (from day 14 to day 18, and from day 21 to day 25), between the 2 times of purifying application, the medium was changed to cardiomyocyte maintenance medium for 72 h (from day 18 to day 21). After purification, the culture was continued in the cardiomyocyte maintenance medium until the functional analysis.
hiPSC-derived cardiomyocytes were fixed with 4% PFA and permeabilized with 0.1% Triton-X in PBS (-) for 15 min at 4°C. […] Fluorescence images were obtained using Operetta high content imaging system (PerkinElmer, Japan) and analyzed using Harmony analysis software (PerkinElmer, Japan).

| Structure (SMILES) | membrane potential duration (in words) [1] | PWD30cF [1] | Rising Slope [1] | rising slope of membrane potential (in words) [1] | membrane potential duration (in words) [2] | Falling Slope [2] | PWD30cF [2] | PWD80cF [2] | Rising Slope [2] | rising slope of membrane potential (in words) [2] | PWD80cF [1] | Falling Slope [1] | falling slope of membrane potential (in words) [1] | falling slope of membrane potential (in words) [2] | Beat Rate [1] | beating rate (in words) [1] | beating rate (in words) [2] | other results |
| --- | --- | --- | --- | --- | --- | --- | --- | --- | --- | --- | --- | --- | --- | --- | --- | --- | --- | --- |
| CCS(=O)(=O)N(C)[C@H]1c2cc(C#N)ccc2OC(C)(C)[C@@H]1O (racemic) [Chromanol 293B] | increase | ↑ | ↓ | dose-dependent decrease | increase | ↓ | ↑ | ↑ | ↓ | dose-dependent decrease |  |  |  |  |  |  |  |  |
| Nc1ccncc1 [4-Aminopridine, 4-Aminopyridine] |  | ↑ |  |  |  |  | ↑ |  |  |  | ↑ |  |  |  |  |  |  | PWD30cF (in words) ([1]; listed as 4-AP): dose-dependent increases; PWD50cF (in words) ([1]; listed as 4-AP): dose-dependent increases; PWD30cF (in words) ([1]; listed as 4AP): prolongation; PWD50cF (in words) ([1]; listed as 4AP): prolongation |
| COC(=O)C1=C(C)NC(C)=C([N+](=O)[O-])C1c1ccccc1C(F)(F)F (centres unmarked) [Bay K 8644] | prolonged | ↑ | ↑ |  | prolonged | ↓ | ↑ | ↑ |  |  | ↑ | ↓ | dose-dependent decrease | dose-dependent decrease |  |  |  | PWD30cF (in words) [1]: prolonged; PWD30cF (in words) ([1]; listed as Bay K8644): prolonged significantly; PWD30cF (in words) [2]: prolonged; PWD30cF (in words) ([2]; listed as Bay K8644): prolonged significantly |
| C[N+](C)(C)CCOC(N)=O [Carbachol] |  |  | ↓ | decrease |  |  |  |  |  |  |  |  |  |  | ↓ | decrease |  | EAD / irregular beating (in words) [1]: No irregular beating or EAD was elicited; EAD / irregular beating (in words) ([1]; listed as carbachol): caused irregular beats early after application; EAD / irregular beating (in words) [2]: No irregular beating or EAD was elicited; response of membrane potential parameters (in words) [2]: no significant difference was observed |
| COc1ccc([C@@H]2Sc3ccccc3N(CCN(C)C)C(=O)[C@@H]2OC(C)=O)cc1 [Diltiazem] |  | ↓ |  |  | decreased | ↑ | ↓ | ↓ |  |  |  |  |  | dose-dependent increases | ↑ | dose-dependent increase | dose-dependent increases | other parameters of membrane potential (in words) [1]: no obvious changes were observed; cessation of beating (samples) [1]: all the AM samples; incidence of arrhythmia-like waveforms: arrest ([1]; 1 μM): 100%; arrest of spontaneous beating (samples) [1]: all the tested samples |
| Cc1cccc(CCN2CCC(C(=O)c3ccc(NS(C)(=O)=O)cc3)CC2)n1 [E-4031] | increase |  | ↓ | dose-dependent decrease | increase | ↓ | ↓ | ↑ | ↓ | dose-dependent decrease | ↑ | ↓ | dose-dependent decrease | dose-dependent decrease | ↓ | dose-dependent decrease | dose-dependent decrease | PWD30-80 (in words) [1]: prolonged; also recorded: dose-dependent increases; PWD80cF (in words) [1]: prolonged; also recorded: dose-dependent increases; PWD30-80 (in words) [2]: prolonged; also recorded: dose-dependent increases; PWD80cF (in words) [2]: prolonged; also recorded: dose-dependent increases |
| CC(C)NCC(O)COc1cccc2ccccc12 (centres unmarked) [Propranolol] |  |  | ↓ | dose-dependent decrease |  | ↓ | ↓ | ↑ | ↓ | dose-dependent decrease | ↑ | ↓ | dose-dependent decrease | dose-dependent decrease | ↓ | dose-dependent decrease | dose-dependent decrease | PWD30-80 (in words) [1]: prolonged; PWD80cF (in words) [1]: prolonged; incidence of arrhythmia-like waveforms: irregular beat ([1]; 10 μM): 11%; irregular beating (samples) ([1]; 10 μM, count of samples): 1 out of 9; incidence of arrhythmia-like waveforms: arrest ([1]; 30 μM): 100%; incidence of arrhythmia-like waveforms: arrest ([1]; 100 μM): 100%; PWD30-80 (in words) [2]: prolonged; PWD80cF (in words) [2]: prolonged; concentration at which irregular beating or EAD appeared [2]: above 10 μM; incidence of arrhythmia-like waveforms: EAD ([2]; 10 μM): 25%; incidence of arrhythmia-like waveforms: irregular beat ([2]; 10 μM): 17%; incidence of arrhythmia-like waveforms: EAD ([2]; 30 μM): 42%; incidence of arrhythmia-like waveforms: arrest ([2]; 30 μM): 17%; incidence of arrhythmia-like waveforms: irregular beat ([2]; 30 μM): 8%; incidence of arrhythmia-like waveforms: arrest ([2]; 100 μM): 100% |
| CC1=C(/C=C/C(C)=C/C=C/C(C)=C/C(=O)O)C(C)(C)CCC1 [RA, retinoic acid] |  |  |  |  |  |  |  |  |  |  |  |  |  |  |  |  |  | MLC-2a positive cells ([3]; AM (RA-treated hiPS-CMs)): 83.4 ± 0.63%; MLC-2v positive cells ([3]; AM (RA-treated hiPS-CMs)): 14.0 ± 2.82%; proportion of cTnT-positive cells ([3]; AM (RA-treated hiPS-CMs), 0.7 μM RA day 4-7, n = 3): 96.79 ± 1.81% and 96.8 ± 1.81%; cardiomyocyte differentiation efficiency (in words) ([3]; with vs without RA): did not influence cardiomyocyte differentiation efficiency |
| COc1ccc(CCN(C)CCCC(C#N)(c2ccc(OC)c(OC)c2)C(C)C)cc1OC (centres unmarked) [Verapamil] |  |  |  |  | decreased | ↑ | ↓ | ↓ | ↓ |  |  |  |  | dose-dependent increases | ↑ | dose-dependent increase | dose-dependent increases | other parameters of membrane potential (in words) [1]: no obvious changes were observed; incidence of arrhythmia-like waveforms: arrest ([1]; 0.1 μM): 100%; cessation of beating (samples) [1]: all the AM samples; arrest of spontaneous beating (samples) [1]: all the tested samples |
